# Laboratory results from ChEMBL document CHEMBL5352393, “Discovery of small-molecule modulators of the secretin receptor: Purmorphamine as novel anti-hypertensive agent” (Eur J Med Chem, 2022).
# Activity calls are given as the source filed them. No cut-off for these calls is given here.
# Tests used:
# Secretin receptor [1] = biological target: T1, Secretin receptor (Homo sapiens, UniProt P47872); assay: Positive allosteric modulation of SCTR (unknown origin) overexpressed in CHO cells assessed as potentiation of SCT-induced cAMP production by measuring maximal response at 100 uM incubated for 20 mins by Lance cAMP assay relative to control (reference value: 100 %); assay type: functional, cell-based; conditions: filed as positive allosteric modulator
# Secretin receptor [2] = biological target: T1, Secretin receptor; assay: Negative allosteric modulation of SCTR (unknown origin) overexpressed in CHO cells assessed as decrease in SCT-induced cAMP production by measuring maximal response at 100 uM incubated for 20 mins by Lance cAMP assay relative to control (reference value: 100 %); assay type: functional, cell-based; conditions: filed as negative allosteric modulator
# Rattus norvegicus [3] = assay: Antihypertensive activity in anesthetized spontaneous hypertensive rat model assessed as reduction in mean arterial blood pressure at 1 mg/kg, po measured within 20 hrs in presence of 0.3 mg/kg Azilsartan relative to control; assay type: functional; parameters: scale not given: the % may be the effect or the level left
# Secretin receptor [4] = biological target: T1, Secretin receptor; assay: Agonist activity at SCTR (unknown origin) expressed in CHO cells assessed as increase in cAMP production incubated for 20 mins Lance cAMP assay; assay type: functional, cell-based
# Secretin receptor [5] = biological target: T1, Secretin receptor; assay: Positive allosteric modulation of SCTR (unknown origin) expressed in CHO cells assessed as potentiation of SCT-induced cAMP production by measuring maximal response at 10 uM incubated for 20 mins in presence of 1 uM SCT by Lance cAMP assay (reference value: 100 +/- 0.03%); assay type: functional, cell-based; conditions: filed as positive allosteric modulator
# Secretin receptor [6] = biological target: T1, Secretin receptor; assay: Positive allosteric modulation of SCTR (unknown origin) expressed in CHO cells assessed as potentiation of SCT-induced cAMP production by measuring maximal response at 100 uM incubated for 20 mins in presence of 1 uM SCT by Lance cAMP assay (reference value: 100 +/- 0.03%); assay type: functional, cell-based; conditions: filed as positive allosteric modulator
# [7] = Half life in C57 mouse blood at 1000 mg/kg, po administered via gavage measured upto 24 hrs by LC-MS/MS analysis; assay type: ADME, organism-based
# Rattus norvegicus [8] = assay: Antihypertensive activity in anesthetized spontaneous hypertensive rat model assessed as reduction in mean arterial blood pressure at 0.26 microg/g, iv administered through tail vein and measured after 20 to 50 hrs by DSI telemetric transmitter based analysis relative to control; assay type: functional; parameters: scale not given: the % may be the effect or the level left; conditions: dose 0.26 µg/g, time 20-50 hrs
# Rattus norvegicus [9] = assay: Antihypertensive activity in anesthetized spontaneous hypertensive rat model assessed as reduction in blood pressure at 0.26 microg/g, iv administered through tail vein and measured after 20 to 50 hrs by DSI telemetric transmitter based analysis; assay type: functional, organism-based; conditions: dose 0.26 µg/g, time 20-50 hrs
# Secretin receptor [10] = biological target: T1, Secretin receptor; assay: Agonist activity at SCTR (unknown origin) expressed in CHO cells assessed as increase in cAMP production by measuring maximal response incubated for 20 mins Lance cAMP assay relative to control; assay type: functional, cell-based
# Secretin receptor [11] = biological target: T1, Secretin receptor; assay: Positive allosteric modulation of SCTR (unknown origin) expressed in CHO cells assessed as potentiation of SCT-induced cAMP production by measuring maximal response at 1 uM incubated for 20 mins in presence of 1 uM SCT by Lance cAMP assay (reference value: 100 +/- 0.03%); assay type: functional, cell-based; conditions: filed as positive allosteric modulator
# [12] = Drug concentration in C57 mouse blood at 1000 mg/kg, po administered via gavage measured after 12 hrs by LC-MS/MS analysis; assay type: ADME, organism-based; conditions: read-out: Ct
# Rattus norvegicus [13] = assay: Antihypertensive activity in anesthetized spontaneous hypertensive rat model assessed as reduction in mean arterial blood pressure at 50 mg/kg, po measured after 15 hrs relative to control; assay type: functional; parameters: scale not given: the % may be the effect or the level left
# [14] = Drug concentration in C57 mouse blood at 1000 mg/kg, po administered via gavage measured at 6 hrs by LC-MS/MS analysis; assay type: ADME, organism-based; conditions: read-out: Ct
# [15] = Drug concentration in C57 mouse blood at 1000 mg/kg, po administered via gavage measured at 24 hrs by LC-MS/MS analysis; assay type: ADME, organism-based; conditions: read-out: Ct
# Secretin receptor [16] = biological target: T1, Secretin receptor; assay: Synergistic agonist activity at SCTR (unknown origin) expressed in CHO cells assessed as fold increase in cAMP production at 100 uM incubated for 20 mins in presence of SCT by Lance cAMP assay (reference value: 4.13); assay type: functional, cell-based; conditions: filed as agonist
# Rattus norvegicus [17] = assay: Antihypertensive activity in anesthetized spontaneous hypertensive rat model assessed as reduction in mean arterial blood pressure at 30 mg/kg, po measured after 15 hrs relative to control; assay type: functional; parameters: scale not given: the % may be the effect or the level left
# [18] = Cmax in C57 mouse blood at 1000 mg/kg, po administered via gavage measured upto 24 hrs by LC-MS/MS analysis; assay type: ADME, organism-based; parameters: time < 24 hrs, dose 1000 mg/kg, route po
# [19] = Tmax in C57 mouse blood at 1000 mg/kg, po administered via gavage measured upto 24 hrs by LC-MS/MS analysis; assay type: ADME, organism-based
# T1 sequence (P47872 whole entry): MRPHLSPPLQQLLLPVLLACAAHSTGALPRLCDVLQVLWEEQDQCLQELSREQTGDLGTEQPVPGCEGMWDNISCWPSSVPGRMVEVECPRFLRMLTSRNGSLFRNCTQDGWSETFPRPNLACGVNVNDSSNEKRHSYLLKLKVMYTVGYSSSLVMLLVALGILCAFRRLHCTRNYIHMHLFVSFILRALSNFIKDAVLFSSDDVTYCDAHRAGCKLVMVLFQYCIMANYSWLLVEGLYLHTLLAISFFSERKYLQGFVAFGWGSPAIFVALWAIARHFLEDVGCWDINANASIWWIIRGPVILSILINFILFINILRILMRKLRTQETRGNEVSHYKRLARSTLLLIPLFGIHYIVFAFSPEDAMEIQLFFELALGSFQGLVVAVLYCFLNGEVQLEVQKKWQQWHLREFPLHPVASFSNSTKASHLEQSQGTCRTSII
compound,measurement,setting,value
O=C(O)c1cn(C2CCCCC2)c2nc(Oc3cccc4ccccc34)nc(Nc3ccc(N4CCOCC4)cc3)c12,Emax,Secretin receptor [1],157%
OC1CCN(c2ccc(Nc3nc(Oc4cccc5ccccc45)nc4c3ncn4C3CCCCC3)cc2)CC1,Emax,Secretin receptor [1],166%
O[C@@H]1CCC[C@H](n2cnc3c(Nc4ccc(N5CCOCC5)cc4)nc(Oc4cccc5ccccc45)nc32)C1,Emax,Secretin receptor [1],165%
Oc1cc(N2CCOCC2)ccc1Nc1nc(Oc2cccc3ccccc23)nc2c1ncn2C1CCCCC1,Emax,Secretin receptor [1],181%
Oc1ccc2c(Oc3nc(Nc4ccc(N5CCOCC5)cc4)c4ncn(C5CCCCC5)c4n3)cccc2c1,Emax,Secretin receptor [1],146%
c1ccc(-c2ccc(Nc3nc(Oc4cccc5ccccc45)nc4c3ncn4C3CCCCC3)cc2)cc1,Emax,Secretin receptor [2],58.8%
c1ccc(Oc2ccc(Nc3nc(Oc4cccc5ccccc45)nc4c3ncn4C3CCCCC3)cc2)cc1,Emax,Secretin receptor [1],98.8%
c1ccc2c(Oc3nc(Nc4ccc(-c5cccc6ccccc56)cc4)c4ncn(C5CCCCC5)c4n3)cccc2c1,Emax,Secretin receptor [2],54.1%
NS(=O)(=O)c1cc(C2(O)NC(=O)c3ccccc32)ccc1Cl (stereo unspecified) [CHLORTHALIDONE],Activity,Rattus norvegicus [3],22.72%
c1ccc2c(Oc3nc(Nc4ccc(N5CCOCC5)cc4)c4ncn(C5CCCCC5)c4n3)cccc2c1 [PURMORPHAMINE],Emax,Secretin receptor [1],204%
same,EC50,Secretin receptor [4],191 µM
same,Emax,Secretin receptor [5],103%
same,Emax,Secretin receptor [6],238%
same,half-life,[7],7.7 h
same,Activity,Rattus norvegicus [8],~14%
same,Activity,Rattus norvegicus [9],Active
same,Emax,Secretin receptor [10],10.3%
same,Emax,Secretin receptor [11],117%
same,concentration at 12 h,[12],260 ng/mL
same,Activity,Rattus norvegicus [13],7.63%
same,concentration at 6 h,[14],> 300 ng/mL
same,concentration at 24 h,[15],61 ng/mL
same,fold change (FC),Secretin receptor [16],6.1
same,Activity,Rattus norvegicus [17],10.33%
same,Cmax,[18],647 ng/mL
same,Tmax,[19],0.5 h
